Among the data in PubChem BioAssay (NCI) are GI50 and TGI values, retold here.

Where “and” joins values, the source holds several entries; their conditions need not be identical. Equal values may be shown once.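 Tested at 5 concentrations; 48 h exposure; 96-well plates; endpoints linearly interpolated, else capped at highest concentration. GI50 marks 50% less growth. At the TGI there is no net growth.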

Among the test systems are A549 NSCLC; BT-549 breast; HCT-15 colon; HT29 colon; IGROV1 ovarian; MCF7 breast; SF-268 CNS; SN12C renal; SNB-75 CNS; SR leukemia.
Experiment in all cases: NCI-60 cell line screen, 48 h

Turning to `O=C1OCC2=C1C(c1cccc(C(F)(F)F)c1)c1cc3c(cc1N2CCO)OCO3` (centres undefined), the GI50 was 2.9 µM in the experiment on A549 NSCLC; 0.919 µM in the experiment with BT-549 breast; 0.511 µM in the experiment with HCT-15 colon; 1.31 µM in the experiment on HT29 colon; 1.61 µM in the experiment on IGROV1 ovarian; 0.415 µM in the experiment with MCF7 breast. Also, the GI50 is 4.78 µM in the experiment on SF-268 CNS and 2.9 µM with SN12C renal. Moreover, the TGI is > 50 µM in the experiment with A549 NSCLC; 27.3 µM with BT-549 breast; > 50 µM with HCT-15 colon; 8.4 µM with HT29 colon; > 50 µM in the experiment with IGROV1 ovarian; > 50 µM with MCF7 breast. Further, the TGI in the experiment with SF-268 CNS and with SN12C renal was > 50 µM throughout.
With `O=C1NC2(CCCC2)/C(=N\O)C12CCCC2`, the TGI in the experiment on A549 NSCLC, in the experiment with HCT-15 colon, in the experiment with HT29 colon, in the experiment with IGROV1 ovarian, in the experiment on SF-268 CNS and in the experiment on SN12C renal was > 100 µM throughout. Also, the TGI with SNB-75 CNS and in the experiment with SR leukemia was > 100 µM throughout.
With `CC1(C(=O)NCCN(CCNC(=O)C2(C)CC3(C)CC(C)(C2)C(=O)NC3=O)CCNC(=O)C2(C)CC3(C)CC(C)(C2)C(=O)NC3=O)CC2(C)CC(C)(C1)C(=O)NC2=O` (centres undefined), the TGI in the experiment with A549 NSCLC, with HCT-15 colon, with HT29 colon, in the experiment on IGROV1 ovarian, with SN12C renal and with SNB-75 CNS was > 100 µM each time. The TGI in the experiment with SR leukemia was > 100 µM.
`Cc1cc2c(=O)cc(-c3ccc(C(F)(F)F)cc3)oc2c(C(=O)O)c1C`: the TGI in the experiment on A549 NSCLC, in the experiment on HCT-15 colon, in the experiment on HT29 colon, in the experiment on IGROV1 ovarian, in the experiment on SF-268 CNS and in the experiment with SN12C renal was > 100 µM in each case. For the same compound, the TGI in the experiment with SNB-75 CNS was > 100 µM.
As for `Fc1c[c-]c(-c2ccccn2)c(F)c1.[CH3-].[Pt+2].c1ccc([PH+](c2ccccc2)c2ccccn2)cc1`, the GI50 is 2.66 µM in the experiment on A549 NSCLC; 1.44 µM in the experiment on HCT-15 colon; 2.44 µM in the experiment on HT29 colon; 1.71 µM with IGROV1 ovarian; 1.22 µM with MCF7 breast; 1.89 µM with SF-268 CNS. In addition, the GI50 is 1.51 µM in the experiment on SN12C renal, 1.03 µM with SNB-75 CNS and 0.786 µM in the experiment on SR leukemia. Besides, the TGI in the experiment on A549 NSCLC is > 100 µM; with HCT-15 colon, 3.59 µM; in the experiment on HT29 colon, > 100 µM; in the experiment with IGROV1 ovarian, 5.02 µM; in the experiment with MCF7 breast, 3.23 µM; with SF-268 CNS it was 5.18 µM. For the same compound, the figures for the TGI in the experiment with SN12C renal, in the experiment on SNB-75 CNS and in the experiment on SR leukemia were 4.24 µM, 9.9 µM and 7.05 µM, respectively.
Regarding `O=C(c1ccccn1)c1nc(-c2ccc(Cl)c(Cl)c2)nc2ccc(Cl)cc12`, the TGI with A549 NSCLC is > 100 µM; in the experiment on HCT-15 colon, > 100 µM; in the experiment with HT29 colon, > 100 µM; in the experiment with IGROV1 ovarian it was > 100 µM; in the experiment with SNB-75 CNS, 35 µM.
For the compound `Clc1ccccc1C1N2CCCCC2[C@@H]2c3[nH]c4ccccc4c3CCN12` (some centres undefined), the TGI with HCT-15 colon was 29.9 µM; in the experiment with HT29 colon, 31.8 µM; in the experiment with IGROV1 ovarian, > 100 µM; with SF-268 CNS, 38.4 µM; in the experiment with SN12C renal, 30.9 µM; in the experiment with SNB-75 CNS it was 66.7 µM.
Take `COc1cc(OC)cc(-c2ccc(-c3ccc(C(=N)N)s3)s2)c1`: the GI50 in the experiment with A549 NSCLC was 1.63 µM; in the experiment with HCT-15 colon it was 0.294 µM; in the experiment on IGROV1 ovarian, 2.03 µM; with MCF7 breast it was 0.271 µM; with SF-268 CNS it was 1.67 µM; with SN12C renal, 1.74 µM. Further, the GI50 in the experiment with SNB-75 CNS is 1.22 µM; in the experiment on SR leukemia, 0.331 µM and 0.244 µM. The TGI came out at 3.37 µM in the experiment with A549 NSCLC; 1.01 µM in the experiment with HCT-15 colon; 3.99 µM with IGROV1 ovarian; 1.22 µM in the experiment on MCF7 breast; 3.42 µM in the experiment on SF-268 CNS; 4.32 µM in the experiment with SN12C renal. Moreover, the TGI was 2.5 µM in the experiment on SNB-75 CNS; 0.918 µM and 0.598 µM in the experiment on SR leukemia.
In the case of `NCCn1ccc(NC(c2ccccc2)(c2ccccc2)c2ccccc2)nc1=O`, the TGI was 75.7 µM with A549 NSCLC; > 100 µM in the experiment with HCT-15 colon; 31.1 µM with HT29 colon; > 100 µM with IGROV1 ovarian; 31.4 µM with SF-268 CNS; 42.3 µM in the experiment with SN12C renal. Moreover, the TGI in the experiment with SNB-75 CNS came out at 33.9 µM; in the experiment with SR leukemia, 46.2 µM.
In the case of `COc1cc[c]([Sb]([Br])([CH]=C(C)C)([CH]=C(C)C)[CH]=C(C)C)cc1`, the GI50 with A549 NSCLC was 11.3 µM; in the experiment with HCT-15 colon, 40.5 µM; with HT29 colon, 4.89 µM; in the experiment with IGROV1 ovarian, 3.06 µM; with SF-268 CNS, 3.52 µM; in the experiment with SN12C renal, 10.9 µM. The GI50 with SR leukemia was 4.28 µM. The TGI was > 100 µM in the experiment on A549 NSCLC; > 100 µM in the experiment on HCT-15 colon; > 100 µM in the experiment on HT29 colon; 66.1 µM in the experiment with IGROV1 ovarian; 35.8 µM with SF-268 CNS; > 100 µM in the experiment with SN12C renal. Also, the TGI in the experiment with SR leukemia was > 100 µM.
`C/C=C/C(=O)[C@@H](O)C(C)C`: the TGI in the experiment with A549 NSCLC, with HCT-15 colon, with HT29 colon, in the experiment on IGROV1 ovarian, with SF-268 CNS and with SN12C renal was > 100 µM each time. Further, the TGI in the experiment on SNB-75 CNS and in the experiment with SR leukemia was > 100 µM in each case.
`CN(C)CCNC(=O)c1cccc2ccc(-c3cccnc3)nc12`: the TGI in the experiment on A549 NSCLC turned out to be 32.3 µM; with HCT-15 colon it was 17.4 µM; in the experiment with HT29 colon, 31.9 µM; in the experiment with IGROV1 ovarian, 25.6 µM; with SF-268 CNS, 26.3 µM; with SN12C renal, 23.1 µM. Besides, in the experiment on SNB-75 CNS, the TGI turned out to be 23.7 µM.
In the case of `CCCCNC(=O)OCC(COc1ccccc1OC)OC(=O)NCCCC` (centres undefined), the TGI in the experiment with A549 NSCLC, in the experiment on HCT-15 colon, in the experiment with HT29 colon, in the experiment with IGROV1 ovarian, in the experiment on SF-268 CNS and in the experiment on SN12C renal was > 100 µM throughout. Further, the TGI in the experiment with SNB-75 CNS was > 100 µM.
With `CCOC(=O)C12CCSC1C1(C#N)C(C#N)=CC2(N=P(c2ccccc2)(c2ccccc2)c2ccccc2)n2c(=O)n(-c3ccccc3)c(=O)n21` (centres undefined), the TGI in the experiment on A549 NSCLC, in the experiment with HCT-15 colon, with HT29 colon, in the experiment on IGROV1 ovarian, in the experiment on SF-268 CNS and in the experiment with SN12C renal was > 100 µM throughout. For the same compound, the TGI in the experiment with SNB-75 CNS was > 100 µM.
